For assay [1], the target named is human D3 receptors (Homo sapiens, UniProt P35462). Description: Radioligand binding assay with [125I]IABN, D3 receptor. Further details: expressed in transfected cells; host or cells: HEK293. As to conditions: for Ki: D3 receptors expressed in HEK cells, mean ± SEM, three experiments, HCl salts; for D2/D3: selectivity ratio of Ki D2 / Ki D3 (fold). The method, then:
Two different assays were used to evaluate the properties of the analogs described above. The receptor binding affinity was measured by radioligand binding assays using [^125I]IABN with D2 or D3 receptors highly expressed HEK293 cells. The functional activity of the analogs was determined using a β-arrestin recruitment assay. The assay was initially conducted in agonist binding mode to confirm that they function as antagonists at the D3 receptor. Once this efficacy was confirmed, the assay was conducted in antagonist mode to determine the ability of the antagonist to compete with dopamine at the D3 receptor. The results of the antagonist mode assay are reported as IC50 values.
(§1) Ki values for D2 and D3 receptors were measured using [^125I]IABN in human D2 and D3 receptors expressed in HEK cells, respectively. A filtration binding assay was used to characterize membrane-associated receptor binding properties. The details for the procedures were described in the literature.

Assay [2] deals with Norepinephrine transporter (NET) (Homo sapiens, UniProt P23975). Kind of assay: PDSP binding screen. As to conditions: for inhibition at 10 µM: read-out: Ki (nM) or % inhibition at 10 µM: Norepinephrine transporter (NET).
The target of assay [3] is Dopamine D5 (Homo sapiens, UniProt P21918). Kind of assay: PDSP binding screen. As to conditions: for inhibition at 10 µM: read-out: Ki (nM) or % inhibition at 10 µM: D5.
In assay [4] the target is T1, Muscarinic M2 (Homo sapiens, UniProt P08172).
T1 sequence (P08172 1-466): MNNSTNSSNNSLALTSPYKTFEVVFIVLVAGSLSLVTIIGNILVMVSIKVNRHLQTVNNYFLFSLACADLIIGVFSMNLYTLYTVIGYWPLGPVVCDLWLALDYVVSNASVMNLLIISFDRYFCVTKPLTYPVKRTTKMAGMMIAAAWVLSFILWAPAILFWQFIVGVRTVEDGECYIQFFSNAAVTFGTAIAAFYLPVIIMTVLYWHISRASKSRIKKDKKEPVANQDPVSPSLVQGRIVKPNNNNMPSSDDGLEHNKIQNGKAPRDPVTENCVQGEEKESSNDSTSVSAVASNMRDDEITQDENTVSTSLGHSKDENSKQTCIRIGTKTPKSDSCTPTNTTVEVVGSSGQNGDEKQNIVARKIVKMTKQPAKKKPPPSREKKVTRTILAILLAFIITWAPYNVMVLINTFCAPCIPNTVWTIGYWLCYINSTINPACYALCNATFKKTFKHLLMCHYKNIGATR
Description: PDSP binding screen. The settings on record: for inhibition at 10 µM: read-out: Ki (nM) or % inhibition at 10 µM: M2.

In assay [5] the target is T2, Adrenergic alpha2A (Homo sapiens, UniProt P08913).
T2 sequence (P08913 1-465): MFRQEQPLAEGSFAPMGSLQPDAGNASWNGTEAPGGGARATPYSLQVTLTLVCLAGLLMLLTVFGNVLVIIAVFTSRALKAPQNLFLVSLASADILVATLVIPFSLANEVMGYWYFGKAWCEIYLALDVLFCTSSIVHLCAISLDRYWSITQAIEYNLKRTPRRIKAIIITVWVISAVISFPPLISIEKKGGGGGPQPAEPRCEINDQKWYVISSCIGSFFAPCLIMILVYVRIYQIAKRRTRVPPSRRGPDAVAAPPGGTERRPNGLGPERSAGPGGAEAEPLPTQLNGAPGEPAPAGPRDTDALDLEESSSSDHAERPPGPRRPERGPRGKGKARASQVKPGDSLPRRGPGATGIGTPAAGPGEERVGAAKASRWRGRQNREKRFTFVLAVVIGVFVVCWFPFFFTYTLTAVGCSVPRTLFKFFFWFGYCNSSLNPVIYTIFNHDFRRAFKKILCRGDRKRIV
Description: PDSP binding screen.

Assay [6] addresses Dopamine D3 (Homo sapiens, UniProt P35462). Kind of assay: PDSP binding screen.
Assay [7] deals with T3, human D2 receptors (Homo sapiens, UniProt P14416).
T3 construct: expressed in transfected cells; host or cells: HEK293
Kind of assay: Radioligand binding assay with [125I]IABN, D2 receptor. As to the method: Two different assays were used to evaluate the properties of the analogs described above. The receptor binding affinity was measured by radioligand binding assays using [^125I]IABN with D2 or D3 receptors highly expressed HEK293 cells. The functional activity of the analogs was determined using a β-arrestin recruitment assay. […] The results of the antagonist mode assay are reported as IC50 values.
as §1

The target in assay [8] is Adrenergic beta2 (Homo sapiens, UniProt P07550). Kind of assay: PDSP binding screen. The settings on record: for inhibition at 10 µM: read-out: Ki (nM) or % inhibition at 10 µM: beta2.
Assay [9] addresses Opioid KOR (Homo sapiens, UniProt P41145). Description: PDSP binding screen. The settings on record: for inhibition at 10 µM: read-out: Ki (nM) or % inhibition at 10 µM: KOR.
Assay [10] concerns the target Histamine H3 (Homo sapiens, UniProt Q9Y5N1). Description: PDSP binding screen. As to conditions: for inhibition at 10 µM: read-out: Ki (nM) or % inhibition at 10 µM: H3.
Assay [11] addresses Muscarinic M3 (Homo sapiens, UniProt P20309). Description: PDSP binding screen. The settings on record: for inhibition at 10 µM: read-out: Ki (nM) or % inhibition at 10 µM: M3.
Assay [12] addresses Benzodiazepine receptor (PBR) (Rattus norvegicus, UniProt P16257). Kind of assay: PDSP binding screen. The settings on record: for Ki (nM) or % inhibition at 10 µM: Benzodiazepine receptor (PBR): PDSP, HCl salts.
For assay [13], the target named is Serotonin 5-HT2B (Homo sapiens, UniProt P41595). Description: PDSP binding screen.
Assay [14] concerns the target T4, Serotonin 5-HT3 (Homo sapiens, UniProt P46098).
T4 sequence (P46098 24-478): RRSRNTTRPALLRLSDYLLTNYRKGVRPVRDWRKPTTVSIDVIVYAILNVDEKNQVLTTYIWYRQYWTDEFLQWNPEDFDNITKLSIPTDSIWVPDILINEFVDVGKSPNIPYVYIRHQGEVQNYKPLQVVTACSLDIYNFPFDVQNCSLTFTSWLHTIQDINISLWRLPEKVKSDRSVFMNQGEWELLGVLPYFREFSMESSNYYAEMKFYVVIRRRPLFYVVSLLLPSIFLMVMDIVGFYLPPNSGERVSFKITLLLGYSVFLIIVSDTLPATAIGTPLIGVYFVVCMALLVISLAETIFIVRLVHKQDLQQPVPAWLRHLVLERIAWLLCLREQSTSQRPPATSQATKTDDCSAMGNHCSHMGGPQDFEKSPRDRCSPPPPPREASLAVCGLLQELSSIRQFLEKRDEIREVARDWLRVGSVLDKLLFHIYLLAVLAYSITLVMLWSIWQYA
Kind of assay: PDSP binding screen.

Setting [15] is: [125I]IABN, read-out: Ki ± SEM (nM) D3.
Where [16] appears, read: [125I]IABN, D2 receptors expressed in HEK cells, mean ± SEM, three experiments, HCl salts, read-out: Ki ± SEM (nM) D2.

Consider six molecules from PMC9820167, “Design and Synthesis of Conformationally Flexible Scaffold as Bitopic Ligands for Potent D3-Selective Antagonists” (International Journal of Molecular Sciences, 2022).

Where two headings read alike, the source gives them in different places.

Muscarinic M3, sequence (P20309 whole entry): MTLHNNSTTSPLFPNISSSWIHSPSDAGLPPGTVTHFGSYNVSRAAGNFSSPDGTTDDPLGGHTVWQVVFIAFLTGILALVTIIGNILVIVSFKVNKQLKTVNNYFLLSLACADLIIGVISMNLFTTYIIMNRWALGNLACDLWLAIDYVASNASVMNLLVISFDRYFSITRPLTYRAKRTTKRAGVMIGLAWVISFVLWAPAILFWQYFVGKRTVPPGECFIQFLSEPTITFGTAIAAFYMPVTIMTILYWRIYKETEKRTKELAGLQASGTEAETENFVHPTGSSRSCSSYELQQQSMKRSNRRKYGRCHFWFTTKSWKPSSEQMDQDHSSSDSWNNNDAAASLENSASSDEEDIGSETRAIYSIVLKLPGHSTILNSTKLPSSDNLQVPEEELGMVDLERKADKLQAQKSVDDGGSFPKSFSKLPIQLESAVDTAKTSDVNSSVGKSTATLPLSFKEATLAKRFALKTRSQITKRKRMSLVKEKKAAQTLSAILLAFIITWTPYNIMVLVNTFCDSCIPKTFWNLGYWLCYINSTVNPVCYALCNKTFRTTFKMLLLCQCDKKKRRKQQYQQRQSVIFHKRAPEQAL
Dopamine D3, sequence (P35462 whole entry): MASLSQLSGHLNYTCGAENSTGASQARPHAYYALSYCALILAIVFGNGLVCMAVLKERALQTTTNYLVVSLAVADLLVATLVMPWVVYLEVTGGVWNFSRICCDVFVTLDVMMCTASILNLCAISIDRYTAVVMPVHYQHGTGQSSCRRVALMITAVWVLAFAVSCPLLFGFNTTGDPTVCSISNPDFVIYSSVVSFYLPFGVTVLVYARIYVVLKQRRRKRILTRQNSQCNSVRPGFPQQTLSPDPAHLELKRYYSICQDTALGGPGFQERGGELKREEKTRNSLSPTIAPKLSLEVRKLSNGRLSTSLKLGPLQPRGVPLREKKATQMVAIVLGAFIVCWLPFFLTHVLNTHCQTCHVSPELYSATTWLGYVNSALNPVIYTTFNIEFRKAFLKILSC
human D3 receptors, sequence (P35462 whole entry): as above
Serotonin 5-HT2B, sequence (P41595 whole entry): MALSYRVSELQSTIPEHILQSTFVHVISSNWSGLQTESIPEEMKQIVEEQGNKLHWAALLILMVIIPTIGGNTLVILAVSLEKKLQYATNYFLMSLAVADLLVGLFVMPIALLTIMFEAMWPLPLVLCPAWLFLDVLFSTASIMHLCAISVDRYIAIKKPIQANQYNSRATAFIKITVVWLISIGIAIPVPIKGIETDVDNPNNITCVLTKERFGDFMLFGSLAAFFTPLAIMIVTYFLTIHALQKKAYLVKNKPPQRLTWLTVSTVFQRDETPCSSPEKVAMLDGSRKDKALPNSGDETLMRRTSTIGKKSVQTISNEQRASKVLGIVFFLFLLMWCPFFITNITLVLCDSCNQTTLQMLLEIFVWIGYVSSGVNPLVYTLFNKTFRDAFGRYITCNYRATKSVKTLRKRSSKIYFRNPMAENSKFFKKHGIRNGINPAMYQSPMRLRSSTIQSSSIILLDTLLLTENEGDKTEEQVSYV
Norepinephrine transporter (NET), sequence (P23975 whole entry): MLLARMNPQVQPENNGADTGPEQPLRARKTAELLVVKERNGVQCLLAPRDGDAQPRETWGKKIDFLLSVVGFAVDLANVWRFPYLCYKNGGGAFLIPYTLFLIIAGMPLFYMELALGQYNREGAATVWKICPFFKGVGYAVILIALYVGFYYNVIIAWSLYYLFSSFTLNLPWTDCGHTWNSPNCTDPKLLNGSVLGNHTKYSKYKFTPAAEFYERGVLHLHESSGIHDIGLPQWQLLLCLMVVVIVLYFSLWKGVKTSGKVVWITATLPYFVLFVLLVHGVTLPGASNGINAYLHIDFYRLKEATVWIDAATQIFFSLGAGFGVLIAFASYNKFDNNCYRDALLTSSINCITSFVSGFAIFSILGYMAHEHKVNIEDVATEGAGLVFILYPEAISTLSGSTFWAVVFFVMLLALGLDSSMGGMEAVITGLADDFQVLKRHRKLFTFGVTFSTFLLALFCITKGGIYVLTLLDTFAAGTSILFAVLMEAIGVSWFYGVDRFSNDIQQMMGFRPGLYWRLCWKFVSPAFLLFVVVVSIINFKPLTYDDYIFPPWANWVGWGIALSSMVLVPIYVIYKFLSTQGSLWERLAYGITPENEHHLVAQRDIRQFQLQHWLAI
Adrenergic beta2, sequence (P07550 whole entry): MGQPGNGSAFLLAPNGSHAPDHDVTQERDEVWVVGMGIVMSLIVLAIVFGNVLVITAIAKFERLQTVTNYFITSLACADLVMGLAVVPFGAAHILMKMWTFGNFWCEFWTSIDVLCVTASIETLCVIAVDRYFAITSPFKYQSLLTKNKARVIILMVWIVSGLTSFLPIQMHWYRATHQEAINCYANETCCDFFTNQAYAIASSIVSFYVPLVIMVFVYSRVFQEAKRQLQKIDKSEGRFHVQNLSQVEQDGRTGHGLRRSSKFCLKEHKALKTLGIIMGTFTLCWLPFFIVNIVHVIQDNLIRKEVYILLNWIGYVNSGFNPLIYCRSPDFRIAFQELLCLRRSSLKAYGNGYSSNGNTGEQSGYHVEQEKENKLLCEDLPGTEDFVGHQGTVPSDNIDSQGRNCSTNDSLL
Dopamine D5, sequence (P21918 whole entry): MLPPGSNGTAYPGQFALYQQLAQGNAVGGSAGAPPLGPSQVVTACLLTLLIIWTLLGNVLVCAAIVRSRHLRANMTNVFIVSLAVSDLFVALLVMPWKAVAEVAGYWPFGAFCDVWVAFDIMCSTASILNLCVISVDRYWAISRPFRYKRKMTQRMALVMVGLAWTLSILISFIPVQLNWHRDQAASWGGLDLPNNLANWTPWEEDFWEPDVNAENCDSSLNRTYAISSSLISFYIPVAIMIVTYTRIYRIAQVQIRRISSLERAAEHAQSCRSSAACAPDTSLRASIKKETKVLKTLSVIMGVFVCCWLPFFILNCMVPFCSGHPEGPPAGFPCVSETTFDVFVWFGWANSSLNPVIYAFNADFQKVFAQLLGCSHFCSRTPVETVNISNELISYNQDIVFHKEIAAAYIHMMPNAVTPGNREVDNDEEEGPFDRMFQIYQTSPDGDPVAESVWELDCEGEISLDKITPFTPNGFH
Histamine H3, sequence (Q9Y5N1 whole entry): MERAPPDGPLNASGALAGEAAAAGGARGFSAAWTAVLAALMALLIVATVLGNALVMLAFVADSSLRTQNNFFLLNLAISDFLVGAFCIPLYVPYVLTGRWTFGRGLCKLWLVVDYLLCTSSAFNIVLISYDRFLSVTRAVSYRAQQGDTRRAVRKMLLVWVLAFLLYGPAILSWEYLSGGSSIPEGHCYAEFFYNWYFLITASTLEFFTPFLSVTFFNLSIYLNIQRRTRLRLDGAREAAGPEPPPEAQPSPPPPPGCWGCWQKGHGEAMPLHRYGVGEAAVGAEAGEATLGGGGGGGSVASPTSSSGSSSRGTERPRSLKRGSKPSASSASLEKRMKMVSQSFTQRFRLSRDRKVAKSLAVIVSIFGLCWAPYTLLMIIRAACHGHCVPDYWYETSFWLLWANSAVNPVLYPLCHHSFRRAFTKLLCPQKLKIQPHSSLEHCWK
Opioid KOR, sequence (P41145 whole entry): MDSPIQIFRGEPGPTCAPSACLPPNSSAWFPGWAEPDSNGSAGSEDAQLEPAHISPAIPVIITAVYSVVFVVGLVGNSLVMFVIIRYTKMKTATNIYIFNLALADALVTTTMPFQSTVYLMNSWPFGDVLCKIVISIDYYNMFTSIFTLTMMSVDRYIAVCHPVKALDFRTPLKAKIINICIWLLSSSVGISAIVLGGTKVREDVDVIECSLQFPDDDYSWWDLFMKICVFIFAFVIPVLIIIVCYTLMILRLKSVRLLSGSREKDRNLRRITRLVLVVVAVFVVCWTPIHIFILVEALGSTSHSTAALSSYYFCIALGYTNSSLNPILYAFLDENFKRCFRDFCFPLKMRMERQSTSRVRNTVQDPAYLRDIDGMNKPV
T3 sequence (P14416 whole entry): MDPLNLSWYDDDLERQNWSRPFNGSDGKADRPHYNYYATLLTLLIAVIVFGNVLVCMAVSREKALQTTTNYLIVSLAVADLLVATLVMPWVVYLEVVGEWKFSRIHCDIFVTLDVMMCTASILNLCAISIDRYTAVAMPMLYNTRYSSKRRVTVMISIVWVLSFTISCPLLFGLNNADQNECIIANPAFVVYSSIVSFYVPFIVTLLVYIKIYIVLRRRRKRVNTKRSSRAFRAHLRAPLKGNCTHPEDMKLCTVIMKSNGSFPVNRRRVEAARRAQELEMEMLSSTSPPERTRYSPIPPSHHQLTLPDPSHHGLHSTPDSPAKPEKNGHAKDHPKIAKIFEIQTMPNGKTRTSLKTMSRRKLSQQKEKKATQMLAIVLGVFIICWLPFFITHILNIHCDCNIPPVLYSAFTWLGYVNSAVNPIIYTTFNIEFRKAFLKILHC

As to `CCN(CCCNC(=O)c1ccc(-c2cccs2)cc1)CCNC(=O)c1cc(Br)cc(OC)c1OC` [9a, 5-Bromo-N-(2-(ethyl(3-(4-(thiophen-2-yl)benzamido)propyl)amino)ethyl)-2,3-dimethoxybenzamide], the Ki (in general, the dissociation constant of the complex between target and ligand, obtained from inhibition or displacement) in assay [1] (Ki ± SEM (nM) D3, [125I]IABN) was determined as 1 ± 0.01 nM; in [2] it was 772 nM; in assay [3], 1470 nM; in assay [4], 1200 nM; in assay [5], 1350 nM; in [6], 0.83 nM. Besides, the Ki was 169 ± 4 nM in [7]; 669 nM in [8]; 107 nM in [9]; 5580 nM in assay [10]; 4750 nM in assay [11]; 1450 nM in [12]. For the same molecule, the inhibition constant (Ki) was found to be 187 nM in assay [13] and 195 nM in [14]. The D2/D3 in [1] is given as 169.

With `CCCN(CCCNC(=O)c1ccc(-c2cccs2)cc1)CCNC(=O)c1cc(Br)cc(OC)c1OC` [20a, 5-Bromo-2,3-dimethoxy-N-(2-(propyl(3-(4-(thiophen-2-yl)benzamido)propyl)amino)ethyl)benzamide], the Ki in [1] (setting [15]) was 2.7 ± 0.4 nM; in assay [2] it was 3510 nM; in assay [4], 4930 nM; in [5], 740 nM; in assay [6], 1.32 nM; in [7] (setting [16]), 259 ± 23 nM. Also, the Ki amounted to 5830 nM in assay [8]; 116 nM in [9]; 9 nM in assay [12]; 170 nM in [13]; 103 nM in [14]. In addition, the D2/D3 in assay [1] is on record as 110. For the same molecule, the inhibition at 10 µM in [3], in assay [10] and in assay [11] was under 50% in each case. In assay [12], the “Ki (nM) or % inhibition at 10 µM: Benzodiazepine receptor (PBR)” value (from here on “Ki (nM) or % inhibition at 10 µM”) was “relatively high affinity”.

With `CCN(CCCNC(=O)c1ccc2ccccc2c1)CCNC(=O)c1cc(Br)cc(OC)c1OC` [21a, N-(3-((2-(5-Bromo-2,3-dimethoxybenzamido)ethyl)(ethyl)amino)propyl)-2-naphthamide], the Ki amounted to 1.2 ± 0.2 nM in assay [1] (setting [15]); 391 nM in assay [2]; 1970 nM in assay [5]; 0.19 nM in [6]; 169 ± 12 nM in assay [7] (setting [16]); 1260 nM in assay [11]. The Ki in assay [12] came out at 9 nM; in [13], 118 nM; in [14] it was 53 nM. Besides, in assay [1], the D2/D3 worked out at 141. Besides, the inhibition at 10 µM in assay [3], in assay [4], in [8], in assay [9] and in assay [10] was under 50% in each case. In addition, the “Ki (nM) or % inhibition at 10 µM” value in assay [12] is reported as “relatively high affinity”.

As to `CCN(CCCNC(=O)c1ccc(-c2ccncc2)cc1)CCNC(=O)c1cc(Br)cc(OC)c1OC` [21c, 5-Bromo-N-(2-(ethyl(3-(4-(pyridin-4-yl)benzamido)propyl)amino)ethyl)-2,3-dimethoxybenzamide], the Ki is 1.1 ± 0.1 nM in assay [1] (setting [15]); over 10000 nM in assay [3]; 1660 nM in [4]; 2580 nM in [5]; 0.36 nM in [6]; 107 ± 5 nM in [7] (setting [16]). The inhibition constant (Ki) in [9] was found to be 642 nM; in [10], 4720 nM; in assay [13], 157 nM; in assay [14], 58 nM. Also, the D2/D3 in assay [1] was 97.3. In addition, the inhibition at 10 µM in [2], in [8], in assay [11] and in [12] (read-out: Ki (nM) or % inhibition at 10 µM: Benzodiazepine receptor (PBR)) was under 50% each time.

For `CCN(CCCNC(=O)c1cc2ccccc2[nH]1)CCNC(=O)c1cc(Br)cc(OC)c1OC` [21d, N-(3-((2-(5-Bromo-2,3-dimethoxybenzamido)ethyl)(ethyl)amino)propyl)-1H-indole-2-carboxamide], the Ki in assay [1] (setting [15]) was determined as 0.8 ± 0.2 nM; in assay [2] it was 842 nM; in [5] it was 2140 nM; in assay [6] it was 0.25 nM; in [7] (setting [16]), 148 ± 9 nM; in [9], 2330 nM. In addition, the Ki in assay [10] was over 10000 nM; in [12], 1220 nM; in [13], 181 nM; in assay [14], 92 nM. Also, the D2/D3 in [1] worked out at 180.5. The inhibition at 10 µM in [3], in assay [4], in [8] and in [11] was under 50% each time.

Consider `CCN(CCCNC(=O)c1cn2ccccc2n1)CCNC(=O)c1cc(Br)cc(OC)c1OC` [21e, N-(3-((2-(5-Bromo-2,3-dimethoxybenzamido)ethyl)(ethyl)amino)propyl)imidazo[1,2-a]pyridine-2-carboxamide], for which the Ki was 2.8 ± 0.5 nM in [1] (setting [15]); 9440 nM in [4]; 5570 nM in assay [5]; 0.46 nM in assay [6]; 142 ± 16 nM in assay [7] (setting [16]); 1550 nM in assay [11]. Also, the results for the Ki in assay [12], in assay [13] and in assay [14] were 11 nM, 443 nM and 148 nM, respectively. In addition, the D2/D3 in assay [1] is on record as 50.7. For the same molecule, the inhibition at 10 µM in [2], in [3], in [8], in assay [9] and in assay [10] was under 50% throughout. In addition, the “Ki (nM) or % inhibition at 10 µM” value in [12] is reported as “relatively high affinity”.
